Laboratory results reported in PubChem BioAssay AID2060483 (Molecular Pharmacology Branch, DTP, NCI, 2025).

Test system: K24384-001-R-PDC complex spheroids, viability
Assay: Anticancer human tumor K24384-001-R-PDC patient-derived pancreatic adenocarcinoma cell line growth inhibition [GQUAD]
Conditions: for IC50: curve of first compound; for viability, T/C: stronger effect = lower value
From the text: DNA G-quadruplex Stabilizer Agents in Combinations in Complex Spheroids
A high-throughput screen of multi-cell type tumor spheroids was designed to identify active combinations of DNA G-quadruplex stabilizer agents and targeted small molecules. Complex spheroids include a stromal component modeled by human endothelial cells (HUVEC) and fibroblasts modeled by human mesenchymal stem cells (MSCs). The concentration ranges selected for each drug and investigational agent were based upon clinically achievable concentrations if the clinical Cmax of the agent was known.
Compounds. The drugs and investigational agents: pidnarulex (CX-5461; NSC782164), APTO-253 (NSC789042), BRACO-19 (NSC847499), peposertib (NSC802822), ceralasertib (NSC780249), elimusertib (NSC800525), camonsertib (NSC841442), AZD-1390 (NSC803789), olaparib (NSC753686), talazoparib (NSC767125), ART-558 (NSC835418), sotorasib (NSC818433), MRTX-1133 (NSC836407), SN-38 (NSC673596), topotecan (NSC609699), etoposide (NSC141540), doxorubicin (NSC123127), gemcitabine (NSC613327), 5-fluorouracil (NSC19893), paclitaxel (NSC125973), vemurafenib (NSC761431), panobinostat (NSC761190), R-306465 (JNJ-16241199; NSC773264), adavosertib (NSC754352), TP-3654 (NSC805149), carboplatin (NSC241240), KSQ-4279 (NSC840948), and staurosporine (NSC755774) were obtained from the National Cancer Institute (NCI) Developmental Therapeutics Program Chemical Repository (34). The FDA-approved anticancer drug set is available from the NCI Developmental Therapeutics Program. […] The stock solutions were prepared in dimethyl sulfoxide (DMSO, Sigma-Aldrich, St. Louis, MO, cat. D2650) at 800-fold the tested concentration and stored at -70 degrees C prior to their use. All drugs and investigational agents were tested over a range starting from a high concentration at or near the clinical Cmax and decreasing in half-log increments. If the clinical Cmax for an agent had not been determined, the highest concentration tested was 10 microM.
2.3 Cell Culture. All cells were maintained in an incubator at 37 degrees C and 5% CO2 with 95% humidity. The PDC lines were cultured according to standard operating procedures established by the NCI PDMR. All PDCs were thawed and cultured in Matrigel-coated flasks prepared with a working solution of 1X Ham's F-12 nutrient mix, without supplementation (Invitrogen, cat. 11765054), 100 U/mL penicillin-streptomycin (Invitrogen, cat. 15140122), and 2.5% Matrigel (Corning Inc., cat. 354248) for the first three passages. The 857933-349-R-J2-PDC line was cultured in 6C/Colon 1B media, which includes advanced DMEM/F-12 (Thermo Fisher Scientific, cat. 12634028), 10 mM HEPES (Thermo Fisher Scientific, cat. 15630080), 1X GlutaMAX supplement (Thermo Fisher Scientific, cat. 35050061), 0.1 mg/mL primocin (InvivoGen, cat. ant-pm-2), 10% defined fetal bovine serum, heat inactivated (HyClone Laboratories Inc., cat. SH30070.03HI), 50% L-WRN conditioned media (ATCC, cat. CRL-3276), 1.25 mM N-Acetyl-L-cysteine (Sigma-Aldrich, cat. A9165), 10 mM nicotinamide (Sigma-Aldrich, cat. N0636), 1X B-27 supplement (Thermo Fisher Scientific, cat. 17504044), 1X N-2 supplement (Thermo Fisher Scientific, cat. 17502048), 10 microM Y-27632 dihydrochloride (Tocris Bioscience, cat. 1254), and 50 ng/mL human EGF recombinant protein (Thermo Fisher Scientific, cat. PHG0311). The 485176-168-R4-J1-PDC line was cultured in Panc media, which includes all 6C/Colon 1B media components plus 100 ng/mL human FGF-10 (Thermo Fisher Scientific, cat. 100-26), 500 nM SB-431542 (Selleckchem, cat. S1067), and gastrin (Tocris, cat. 3006).
[…]

[1] = second compound 0.0316 µM, first compound 0.0316 µM
[2] = second compound 0.0316 µM, first compound 0.1 µM
[3] = second compound 0.0316 µM, first compound 0.316 µM
[4] = second compound 0.0316 µM, first compound 1 µM
[5] = second compound 0.0316 µM, first compound 3.16 µM
[6] = second compound 0.0316 µM, first compound 10 µM
[7] = second compound 0.1 µM, first compound 0.0316 µM
[8] = second compound 0.1 µM, first compound 0.1 µM
[9] = second compound 0.1 µM, first compound 0.316 µM
[10] = second compound 0.1 µM, first compound 1 µM
[11] = second compound 0.1 µM, first compound 3.16 µM
[12] = second compound 0.1 µM, first compound 10 µM
[13] = second compound 0.316 µM, first compound 0.0316 µM
[14] = second compound 0.316 µM, first compound 0.1 µM
[15] = second compound 0.316 µM, first compound 0.316 µM
[16] = second compound 0.316 µM, first compound 1 µM
[17] = second compound 0.316 µM, first compound 3.16 µM
[18] = second compound 0.316 µM, first compound 10 µM
[19] = second compound 1 µM, first compound 0.0316 µM
[20] = second compound 1 µM, first compound 0.1 µM
[21] = second compound 1 µM, first compound 0.316 µM
[22] = second compound 1 µM, first compound 1 µM
[23] = second compound 1 µM, first compound 3.16 µM
[24] = second compound 1 µM, first compound 10 µM
[25] = second compound 3.16 µM, first compound 0.0316 µM
[26] = second compound 3.16 µM, first compound 0.1 µM
[27] = second compound 3.16 µM, first compound 0.316 µM
[28] = second compound 3.16 µM, first compound 1 µM
[29] = second compound 3.16 µM, first compound 3.16 µM
[30] = second compound 3.16 µM, first compound 10 µM
[31] = second compound 10 µM, first compound 0.0316 µM
[32] = second compound 10 µM, first compound 0.1 µM
[33] = second compound 10 µM, first compound 0.316 µM
[34] = second compound 10 µM, first compound 1 µM
[35] = second compound 10 µM, first compound 3.16 µM
[36] = second compound 10 µM, first compound 10 µM
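Also: spheroids exposed to compounds for seven days.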

C=CC(=O)N1CCN(c2nc(=O)n(-c3c(C)ccnc3C(C)C)c3nc(-c4c(O)cccc4F)c(F)cc23)C(C)C1 (centres undefined) + CN(C)c1ccc(Nc2c3ccc(NC(=O)CCN4CCCC4)cc3nc3cc(NC(=O)CCN4CCCC4)ccc23)cc1
IC50 (second compound 0.0316 µM): > 10 µM | IC50 (second compound 0.1 µM): > 10 µM | IC50 (second compound 0.316 µM): > 10 µM | IC50 (second compound 1 µM): > 10 µM | IC50 (second compound 3.16 µM): > 10 µM | IC50 (second compound 10 µM): > 10 µM | viability, T/C [1]: 95.5% | viability, T/C [2]: 93.2% | viability, T/C [3]: 107% | viability, T/C [4]: 104% | viability, T/C [5]: 99.6% | viability, T/C [6]: 93.3% | viability, T/C [7]: 100% | viability, T/C [8]: 102% | viability, T/C [9]: 112% | viability, T/C [10]: 121% | viability, T/C [11]: 123% | viability, T/C [12]: 87.8% | viability, T/C [13]: 100% | viability, T/C [14]: 101% | viability, T/C [15]: 105% | viability, T/C [16]: 96.6% | viability, T/C [17]: 128% | viability, T/C [18]: 98.6% | viability, T/C [19]: 101% | viability, T/C [20]: 129% | viability, T/C [21]: 113% | viability, T/C [22]: 115% | viability, T/C [23]: 147% | viability, T/C [24]: 85.7% | viability, T/C [25]: 101% | viability, T/C [26]: 100% | viability, T/C [27]: 100% | viability, T/C [28]: 93% | viability, T/C [29]: 110% | viability, T/C [30]: 79% | viability, T/C [31]: 81.6% | viability, T/C [32]: 99.7% | viability, T/C [33]: 82.3% | viability, T/C [34]: 109% | viability, T/C [35]: 89% | viability, T/C [36]: 62.2%

COc1ncnc(C2CC2)c1-c1ncc2cnn(Cc3ccc(-c4nc(C(F)(F)F)cn4C(C)C)cc3)c2n1 + CN(C)c1ccc(Nc2c3ccc(NC(=O)CCN4CCCC4)cc3nc3cc(NC(=O)CCN4CCCC4)ccc23)cc1
IC50 (second compound 0.0316 µM): > 10 µM | IC50 (second compound 0.1 µM): > 10 µM | IC50 (second compound 0.316 µM): > 10 µM | IC50 (second compound 1 µM): > 10 µM | IC50 (second compound 3.16 µM): > 10 µM | IC50 (second compound 10 µM): 6.95 µM | viability, T/C [1]: 85% | viability, T/C [2]: 107% | viability, T/C [3]: 107% | viability, T/C [4]: 96.9% | viability, T/C [5]: 83.6% | viability, T/C [6]: 104% | viability, T/C [7]: 73.9% | viability, T/C [8]: 86.3% | viability, T/C [9]: 100% | viability, T/C [10]: 86.1% | viability, T/C [11]: 96.7% | viability, T/C [12]: 110% | viability, T/C [13]: 79.9% | viability, T/C [14]: 90.7% | viability, T/C [15]: 77% | viability, T/C [16]: 102% | viability, T/C [17]: 97.2% | viability, T/C [18]: 93.5% | viability, T/C [19]: 88.1% | viability, T/C [20]: 84.2% | viability, T/C [21]: 88.6% | viability, T/C [22]: 95.6% | viability, T/C [23]: 73.7% | viability, T/C [24]: 88.6% | viability, T/C [25]: 85.1% | viability, T/C [26]: 112% | viability, T/C [27]: 85.6% | viability, T/C [28]: 79.1% | viability, T/C [29]: 86.9% | viability, T/C [30]: 91.8% | viability, T/C [31]: 65.7% | viability, T/C [32]: 99.2% | viability, T/C [33]: 79.2% | viability, T/C [34]: 88% | viability, T/C [35]: 70.4% | viability, T/C [36]: 40.6%
